Source: PMC7318646 (Chemmedchem, 2020)

Key:
HSA [1] = target: T1, HSA (Homo sapiens, UniProt P02768); test: Three-dye; assay type: binding; conditions: three dyes 8 μM each on HSA 25 μM
HSA [2] = target: T1, HSA; test: switchSENSE molecular dynamics mode; conditions: compound concentration tenfold higher than KD

T1 sequence (P02768 25-609): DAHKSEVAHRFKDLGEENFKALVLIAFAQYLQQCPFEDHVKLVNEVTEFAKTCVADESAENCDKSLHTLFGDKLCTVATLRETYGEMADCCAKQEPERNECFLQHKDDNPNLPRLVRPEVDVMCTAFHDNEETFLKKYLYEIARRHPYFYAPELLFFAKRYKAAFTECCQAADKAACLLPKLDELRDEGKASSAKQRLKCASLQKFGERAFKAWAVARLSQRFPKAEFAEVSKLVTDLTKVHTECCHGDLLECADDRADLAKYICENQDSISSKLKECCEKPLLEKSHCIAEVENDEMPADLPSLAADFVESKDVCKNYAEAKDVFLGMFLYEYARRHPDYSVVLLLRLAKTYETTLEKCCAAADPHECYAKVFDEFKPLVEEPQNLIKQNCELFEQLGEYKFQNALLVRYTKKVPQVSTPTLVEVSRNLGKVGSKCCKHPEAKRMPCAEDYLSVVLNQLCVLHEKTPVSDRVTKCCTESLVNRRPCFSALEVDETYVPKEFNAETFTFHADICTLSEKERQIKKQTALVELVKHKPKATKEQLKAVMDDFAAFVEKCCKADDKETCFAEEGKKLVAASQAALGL

| Compound | displacement of dimethylamino-BODIPY 5 a (Sudlow-site II probe) (HSA [1]) | displacement of warfarin derivative 8 a (Sudlow-site I probe) (HSA [1]) | displacement of NBD-FA (fatty acid binding site probe) (HSA [1]) | conformational change of HSA upon binding (molecular dynamics mode) (HSA [2]) |
| --- | --- | --- | --- | --- |
| CCC(Cc1c(I)cc(I)c(O)c1I)C(=O)O (stereo not drawn) [Iophenoxic acid, iophenoxic acid] | competitive | competitive |  |  |
| O=C(O)CCNC(=O)c1ccc(/N=N/c2ccc(O)c(C(=O)O)c2)cc1 [balsalazide] | same behavior | same behavior | same behavior |  |
| (7‐nitrobenz‐2‐oxa‐1,3‐diazol‐4‐yl)‐C12 fatty acid [NBD‐FA] |  |  |  | significant expansion |
